Patent US20080064027A1, “TEL/Etv6-mediated inhibition of cell proliferation” (priority 2002, published 2008)

What was measured:
Stat3-ER = biological target: T1, Stat3-ER (UniProt P19785+P40763, G525R); test: Stat3 oligonucleotide DNA binding assay on nuclear extracts; assay type: cell-based
T1 construct: expressed in transfected cells
Description: DNA binding assays were carried out using cells stimulated with 4HT (1 microM) for 0, 0.3, 1, 2, 4 and 24 hours. […] Samples were centrifuged and the pellet was washed two more times with binding buffer. Proteins were eluted from beads by boiling in 25 microliters of 2× loading buffer (1% DTT, 4% SDS, 20% Glycerol, 0.02% Bromophenol Blue, 0.25 M TrisHCl 1M 6.8 pH) and SDS-PAGE was performed.
DNA binding of Stat3-ER and endogenous Stat3 was monitored by performing Western analysis on the oligonucleotide-bound proteins.

[1] = test system: Stat3 transcriptional activity; test: APRE-driven luciferase reporter assay; assay type: cell-based; details: for Relative Luciferase Activity: 24 hours, control = 1; for Stat3-dependent transcription of luciferase, increase over control: Stat3-ER-expressing A375, without TEL siRNA
Source text: Luciferase assays are used to verify that the Stat3-ER construct is transcriptionally active. For this purpose, a luciferase reporter gene driven by the acute-phase response element (APRE) of the alpha 2-macroglobulin gene, a target for Stat1 and Stat3, was used.
Cells (2×10^6 cells/6 well dish) were transfected with a reporter plasmid containing four copies of acute phase responsible element (APRE) upstream of the minimal junB promoter linked to the luciferase gene (T Hirano, EMBO Journal, 1996, 15, 3651-3658), together with the internal control plasmid pRL-SV40 from Promega (Madison, Wis.). Twenty-four hours after the transfection, cells were either left unstimulated or stimulated with OSM (PeproTechEC, London, United Kingdom), 4-hydroxytamoxifen (4HT; Sigma, St. Louis, Mo.) or a combination of 4HT/OSM for 24 hours. The preparation of cell extracts and measurement of luciferase activities were carried out using the Dual-Luciferase reporter assay system from Promega (Madison, Wis.) in an Autolumat LB 953 (Berthold Technologies, Wildbad, Germany). Changes in firefly luciferase activity were expressed relative to Renilla luciferase activity in the same sample.

[2] = 4HT 1 microM, Stat3-ER expressing A375 cells

T1 sequence (P40763+P19785 fused P19785:G525R): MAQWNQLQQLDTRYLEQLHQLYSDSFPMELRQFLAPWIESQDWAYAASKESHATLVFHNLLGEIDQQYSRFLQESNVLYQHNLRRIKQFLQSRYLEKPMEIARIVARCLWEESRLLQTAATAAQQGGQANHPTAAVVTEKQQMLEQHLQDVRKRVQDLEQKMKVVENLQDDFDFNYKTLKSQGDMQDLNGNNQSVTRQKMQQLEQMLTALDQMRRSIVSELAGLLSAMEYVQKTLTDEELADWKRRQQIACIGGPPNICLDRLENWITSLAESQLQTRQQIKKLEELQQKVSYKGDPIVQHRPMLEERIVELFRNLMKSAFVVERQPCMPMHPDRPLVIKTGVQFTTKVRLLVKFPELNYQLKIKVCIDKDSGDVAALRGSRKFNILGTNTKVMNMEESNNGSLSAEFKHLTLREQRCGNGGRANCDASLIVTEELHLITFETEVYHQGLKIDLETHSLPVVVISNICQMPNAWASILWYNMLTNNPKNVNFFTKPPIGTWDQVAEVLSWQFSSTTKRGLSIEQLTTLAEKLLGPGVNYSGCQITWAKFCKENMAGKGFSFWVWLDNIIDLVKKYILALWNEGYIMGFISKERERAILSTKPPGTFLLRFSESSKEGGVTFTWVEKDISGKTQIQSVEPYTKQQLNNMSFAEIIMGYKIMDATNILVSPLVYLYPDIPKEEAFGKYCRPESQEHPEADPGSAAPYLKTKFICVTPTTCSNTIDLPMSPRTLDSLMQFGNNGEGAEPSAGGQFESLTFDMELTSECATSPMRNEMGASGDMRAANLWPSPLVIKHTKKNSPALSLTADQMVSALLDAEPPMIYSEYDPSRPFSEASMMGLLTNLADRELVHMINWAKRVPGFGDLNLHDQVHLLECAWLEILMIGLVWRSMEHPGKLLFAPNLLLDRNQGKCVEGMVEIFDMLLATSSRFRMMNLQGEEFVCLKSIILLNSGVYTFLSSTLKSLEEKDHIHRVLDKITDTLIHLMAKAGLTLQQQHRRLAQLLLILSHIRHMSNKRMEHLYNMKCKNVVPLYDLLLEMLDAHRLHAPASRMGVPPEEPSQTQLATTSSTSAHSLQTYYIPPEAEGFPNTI

Compound | endogenous Stat3 DNA binding after OSM addition (Stat3-ER; cells pretreated with 4HT for 24 hrs) | Stat3-ER DNA binding in the presence of OSM (Stat3-ER; cells pretreated with 4HT for 24 hrs, remained bound for the entire course) | activation of Stat3 transcriptional activity among IL-6 family members tested (IL-6, LIF) ([1]; A375 cells) | Relative Luciferase Activity ([1]; OSM 1 ng/ml, Stat3-ER expressing A375 cells) | Relative Luciferase Activity ([1]; OSM 10 ng/ml, Stat3-ER expressing A375 cells) | Relative Luciferase Activity ([1]; OSM 100 ng/ml, Stat3-ER expressing A375 cells) | Stat3-dependent transcription of luciferase, increase over control [1] | earliest time at which Stat3ER-DNA binding was detected after stimulation (Stat3-ER; 4HT 1 microM) | time of maximum measured Stat3ER-DNA binding (Stat3-ER; 4HT 1 microM) | Stat3-ER nuclear translocation and DNA binding to Stat3-specific oligonucleotide probe (Stat3-ER; 4HT 1 microM, Stat3-ER-expressing A375 cells) | Relative Luciferase Activity [1, 2] | stimulation of transcription from the APRE [1, 2]
oncostatin M [OSM] | could be detected 15 min after addition of OSM and decreased after 1 hr of treatment | enhanced | most potent activator | 3 | 9 | 18 | about 9 fold |  |  |  |  | 
CCC(=C(c1ccc(O)cc1)c1ccc(OCCN(C)C)cc1)c1ccccc1 [4HT, 4-hydroxytamoxifen, reference compound] |  |  |  |  |  |  | about 6 fold | 20 min | 24 h | induced nuclear translocation and DNA-binding | 29 | more efficiently than 100 ng/ml OSM
